In this assay the target is Indole amine 2,3-dioxygenase 1 (IDO1) (Homo sapiens, UniProt P14902). Kind of assay: IDO1 enzyme. The format is biochemical.
Sequence of Indole amine 2,3-dioxygenase 1 (IDO1) (P14902 whole entry): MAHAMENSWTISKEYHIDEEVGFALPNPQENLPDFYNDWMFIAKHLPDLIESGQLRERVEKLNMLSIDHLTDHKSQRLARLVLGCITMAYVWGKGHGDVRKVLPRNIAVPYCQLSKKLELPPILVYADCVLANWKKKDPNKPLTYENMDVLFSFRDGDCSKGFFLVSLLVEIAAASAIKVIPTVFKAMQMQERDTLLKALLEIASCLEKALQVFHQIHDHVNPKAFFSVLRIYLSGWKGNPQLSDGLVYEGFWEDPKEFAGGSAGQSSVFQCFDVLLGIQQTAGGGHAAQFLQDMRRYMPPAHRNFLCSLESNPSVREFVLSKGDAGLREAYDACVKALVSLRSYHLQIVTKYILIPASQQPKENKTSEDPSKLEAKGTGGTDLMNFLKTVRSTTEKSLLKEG

For orientation: IC50 means the concentration that gives 50% inhibition. `O=C1c2ccccc2-n2c1nc1ccccc1c2=O` [TRYP, indolo [2,1-b]quinazoline-6,12-dione] had an IC50 of 17.3 µM.

Values taken from publication PMC11780470 (ACS Omega, 2025).
